Laboratory results taken from the supplement of paper PMC10307832.

Columns and labels:
Assay in all cases: relative viability (nuclei count vs DMSO), 5 days (fraction); higher = more cells survive
CAP-232 + Crizotinib = compound: C[C@H]([C@@H](C(=O)N)NC(=O)[C@@H]1CSSC[C@@H](C(=O)N[C@H](C(=O)N[C@@H](C(=O)N[C@H](C(=O)N1)CCCCN)CC2=CNC3=CC=CC=C32)CC4=CC=C(C=C4)O)NC(=O)[C@@H](CC5=CC=CC=C5)N)O [CAP-232] + C[C@@H](Oc1cc(-c2cnn(C3CCNCC3)c2)cnc1N)c1c(Cl)ccc(F)c1Cl [Crizotinib] (partner 1 µM)
In short: (§1)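 Relative viability was taken as the ratio of nuclei in treated wells to nuclei in vehicle wells. Lung cancer cell lines in 1536-well plates received compounds by pin tool one day after seeding, either one drug alone or a fixed anchor-drug dose plus five library-drug doses (not always all listed) in √10 steps. Nuclei were counted on 4× images after 5 days of treatment, and values are medians of duplicate plates.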

CAP-232 + Linsitinib = compound: C[C@H]([C@@H](C(=O)N)NC(=O)[C@@H]1CSSC[C@@H](C(=O)N[C@H](C(=O)N[C@@H](C(=O)N[C@H](C(=O)N1)CCCCN)CC2=CNC3=CC=CC=C32)CC4=CC=C(C=C4)O)NC(=O)[C@@H](CC5=CC=CC=C5)N)O [CAP-232] + C[C@]1(O)C[C@@H](c2nc(-c3ccc4ccc(-c5ccccc5)nc4c3)c3c(N)nccn32)C1 [Linsitinib] (partner 1 µM)
In short: as §1

CAP-232 + Phenformin = compound: C[C@H]([C@@H](C(=O)N)NC(=O)[C@@H]1CSSC[C@@H](C(=O)N[C@H](C(=O)N[C@@H](C(=O)N[C@H](C(=O)N1)CCCCN)CC2=CNC3=CC=CC=C32)CC4=CC=C(C=C4)O)NC(=O)[C@@H](CC5=CC=CC=C5)N)O [CAP-232] + N=C(N)NC(=N)NCCc1ccccc1 [Phenformin] (partner 250 µM)
In short: as §1

CAP-232 + Foretinib = compound: C[C@H]([C@@H](C(=O)N)NC(=O)[C@@H]1CSSC[C@@H](C(=O)N[C@H](C(=O)N[C@@H](C(=O)N[C@H](C(=O)N1)CCCCN)CC2=CNC3=CC=CC=C32)CC4=CC=C(C=C4)O)NC(=O)[C@@H](CC5=CC=CC=C5)N)O [CAP-232] + COc1cc2c(Oc3ccc(NC(=O)C4(C(=O)Nc5ccc(F)cc5)CC4)cc3F)ccnc2cc1OCCCN1CCOCC1 [Foretinib] (partner 0.25 µM)
In short: as §1

CAP-232 = compound: C[C@H]([C@@H](C(=O)N)NC(=O)[C@@H]1CSSC[C@@H](C(=O)N[C@H](C(=O)N[C@@H](C(=O)N[C@H](C(=O)N1)CCCCN)CC2=CNC3=CC=CC=C32)CC4=CC=C(C=C4)O)NC(=O)[C@@H](CC5=CC=CC=C5)N)O [CAP-232]
In short: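 Viability was defined as treated-well nuclei divided by vehicle-well nuclei, with the median taken over replicate plates. Cells from lung cancer lines sat overnight at 37 °C in 1536-well plates, received five √10-spaced library-drug doses by pinning on vehicle-anchored plates, and grew 5 days without medium change before one-step fixation, permeabilisation and Hoechst staining, 4× imaging and MetaXpress nuclear counts. Only plates with control CV under 25% and at least one doubling were kept.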

| Cell Line | relative viability (CAP-232 + Crizotinib; first compound 0.4 µM) | relative viability (CAP-232 + Crizotinib; first compound 1.265 µM) | relative viability (CAP-232 + Crizotinib; first compound 4 µM) | relative viability (CAP-232 + Crizotinib; first compound 12.65 µM) | relative viability (CAP-232 + Linsitinib; first compound 0.4 µM) | relative viability (CAP-232 + Linsitinib; first compound 1.265 µM) | relative viability (CAP-232 + Linsitinib; first compound 4 µM) | relative viability (CAP-232 + Linsitinib; first compound 12.65 µM) | relative viability (CAP-232 + Phenformin; first compound 0.4 µM) | relative viability (CAP-232 + Phenformin; first compound 1.265 µM) | relative viability (CAP-232 + Phenformin; first compound 4 µM) | relative viability (CAP-232 + Phenformin; first compound 12.65 µM) | relative viability (CAP-232 + Foretinib; first compound 0.4 µM) | relative viability (CAP-232 + Foretinib; first compound 1.265 µM) | relative viability (CAP-232 + Foretinib; first compound 4 µM) | relative viability (CAP-232 + Foretinib; first compound 12.65 µM) | relative viability (CAP-232; 0.4 µM) | relative viability (CAP-232; 1.265 µM) | relative viability (CAP-232; 4 µM) | relative viability (CAP-232; 12.65 µM) |
| --- | --- | --- | --- | --- | --- | --- | --- | --- | --- | --- | --- | --- | --- | --- | --- | --- | --- | --- | --- | --- |
| NCI-H647 | 1.28 | 1.01 | 1.05 | 0.871 | 1.09 | 1.13 | 1.5 | 0.851 | 0.434 | 0.561 | 0.637 | 0.401 | 1.15 | 1.06 | 1.36 | 0.749 | 1.11 | 0.808 | 1.17 | 0.768 |
| NCI-H2009 | 1.11 | 1.01 | 1.05 | 1.09 | 1.2 | 1.18 | 1.22 | 1.09 | 0.501 | 0.493 | 0.547 | 0.42 | 1.23 | 1.17 | 1.21 | 1.07 | 1.06 | 0.998 | 1 | 0.932 |
| EPLC-272H | 1.16 | 0.836 | 0.791 | 0.887 | 1.33 | 1.02 | 1.3 | 1.09 | 0.276 | 0.285 | 0.319 | 0.322 | 0.661 | 0.644 | 0.659 | 0.71 | 0.998 | 0.909 | 1.05 | 0.915 |
| NCI-H520 | 0.822 | 0.66 | 0.888 | 0.56 | 1.06 | 0.969 | 1.04 | 0.563 | 0.529 | 0.52 | 0.619 | 0.461 | 0.734 | 0.98 | 0.92 | 0.47 | 1.09 | 1.01 | 1.07 | 0.928 |
| NCI-H2405 | 0.76 | 0.848 | 0.876 | 0.843 | 0.789 | 1.06 | 0.868 | 0.547 | 0.377 | 0.356 | 0.37 | 0.317 | 1.04 | 1.11 | 1.05 | 0.79 | 1.01 | 0.972 | 1.05 | 0.786 |
| NCI-H2085 | 0.728 | 0.882 | 0.821 | 0.853 | 0.816 | 1.04 | 0.955 | 0.843 | 0.713 | 0.703 | 0.741 | 0.688 | 0.933 | 0.87 | 1.1 | 0.998 | 1.03 | 1.03 | 0.997 | 0.945 |
| NCI-H322M | 1.01 | 0.903 | 0.841 | 0.778 | 1.14 | 0.916 | 0.941 | 0.959 | 0.873 | 0.709 | 0.759 | 0.862 | 1.05 | 0.962 | 0.952 | 0.985 | 1.13 | 0.86 | 0.896 | 1.16 |
